The results in this text go back to US7176008B2, “Process for producing activated thrombin-activatable fibrinolysis inhibitor” (Merck & Co., Inc., priority 2002, dated 2007).

Residues, ends and D or L forms follow the SMILES beside them. *: point of attachment. Biotin = O=C1N[C@H]2[C@H](CS[C@H]2CCCCC(=O)*)N1; Ahx = NCCCCCC(=O)O Bounds are passed on as bounds.

One test has as its target T1, CPN (Homo sapiens, UniProt P15169).
T1 sequence (P15169 21-458): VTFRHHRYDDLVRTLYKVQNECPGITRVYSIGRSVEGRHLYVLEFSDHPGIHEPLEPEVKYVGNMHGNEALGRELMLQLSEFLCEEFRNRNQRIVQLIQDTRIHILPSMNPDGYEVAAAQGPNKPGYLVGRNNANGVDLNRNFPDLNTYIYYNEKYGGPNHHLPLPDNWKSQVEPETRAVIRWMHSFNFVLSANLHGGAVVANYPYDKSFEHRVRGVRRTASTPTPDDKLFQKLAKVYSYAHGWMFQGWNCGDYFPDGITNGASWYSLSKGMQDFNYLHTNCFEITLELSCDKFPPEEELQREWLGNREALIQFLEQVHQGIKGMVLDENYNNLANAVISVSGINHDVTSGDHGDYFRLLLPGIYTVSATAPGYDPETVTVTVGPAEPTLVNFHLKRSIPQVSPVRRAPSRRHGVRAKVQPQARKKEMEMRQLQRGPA
T1 sequence (P22792 22-545 partner): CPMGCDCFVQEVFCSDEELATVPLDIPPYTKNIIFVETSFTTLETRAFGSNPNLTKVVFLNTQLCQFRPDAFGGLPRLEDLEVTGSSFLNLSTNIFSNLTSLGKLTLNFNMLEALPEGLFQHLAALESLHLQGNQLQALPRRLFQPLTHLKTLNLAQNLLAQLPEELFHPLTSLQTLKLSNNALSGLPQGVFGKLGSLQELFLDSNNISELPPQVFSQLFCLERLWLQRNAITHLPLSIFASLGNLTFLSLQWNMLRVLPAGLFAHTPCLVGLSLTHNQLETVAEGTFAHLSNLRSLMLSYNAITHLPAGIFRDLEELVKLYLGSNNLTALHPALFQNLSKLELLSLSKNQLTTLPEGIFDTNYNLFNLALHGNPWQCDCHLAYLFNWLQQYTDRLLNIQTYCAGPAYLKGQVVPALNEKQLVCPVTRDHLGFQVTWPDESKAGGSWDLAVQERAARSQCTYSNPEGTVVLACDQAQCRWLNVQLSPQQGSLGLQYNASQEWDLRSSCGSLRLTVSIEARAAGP

A further test has as its target T2, CPM (Homo sapiens, UniProt P14384).
T2 sequence (P14384 18-423 limits assumed): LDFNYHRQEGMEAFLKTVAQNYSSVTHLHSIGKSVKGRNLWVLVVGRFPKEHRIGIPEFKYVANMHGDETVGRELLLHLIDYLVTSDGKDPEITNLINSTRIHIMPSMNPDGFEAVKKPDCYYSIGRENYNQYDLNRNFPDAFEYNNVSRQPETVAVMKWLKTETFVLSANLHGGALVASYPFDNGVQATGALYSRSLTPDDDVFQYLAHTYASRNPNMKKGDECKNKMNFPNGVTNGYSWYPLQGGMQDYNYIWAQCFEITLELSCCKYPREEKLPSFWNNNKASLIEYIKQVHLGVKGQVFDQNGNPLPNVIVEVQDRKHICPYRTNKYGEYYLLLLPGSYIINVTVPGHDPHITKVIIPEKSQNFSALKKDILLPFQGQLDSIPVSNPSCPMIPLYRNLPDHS

The next test addresses T3, CPB (Homo sapiens, UniProt P15086).
T3 sequence (P15086 111-417): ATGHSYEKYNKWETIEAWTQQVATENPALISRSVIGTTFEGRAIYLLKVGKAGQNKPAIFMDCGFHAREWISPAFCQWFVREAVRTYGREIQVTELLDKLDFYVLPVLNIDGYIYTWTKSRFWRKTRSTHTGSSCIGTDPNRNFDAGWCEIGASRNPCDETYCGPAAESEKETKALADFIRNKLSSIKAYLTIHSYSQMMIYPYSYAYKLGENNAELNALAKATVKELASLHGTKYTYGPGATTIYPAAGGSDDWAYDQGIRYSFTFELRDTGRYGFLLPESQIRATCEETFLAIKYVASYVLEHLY
Particulars: CPB versus TAFIa.

For test [1], the target named is CPE (Homo sapiens, UniProt P16870). The test can be described thus: biochemical.
Protocol: (§1) Inhibition studies of CPE were performed in an acetate buffer containing 125 mM sodium acetate, pH 5.5, 1.25 mM CoCl2 at 37° C. […] CPE (final concentration 0.15 nM) was pre-incubated with inhibitors for 30 min at room temperature. The electrochemiluminescence substrate (final concentration 50 nM) was added and incubated for 6 hr at 37° C., then quenched with one-third volume of 1 M Tris, pH 8.0.
(§2) All measurements were performed in at least duplicates and the inhibition constants (Ki) were determined by the equation below wherein Vo and Vi are activity in the absence and presence of inhibitors, respectively. Vo/Vi=1+[I]/K1
For another test, the target named is T4, CPZ (Homo sapiens, UniProt Q66K79).
T4 sequence (Q66K79 19-652): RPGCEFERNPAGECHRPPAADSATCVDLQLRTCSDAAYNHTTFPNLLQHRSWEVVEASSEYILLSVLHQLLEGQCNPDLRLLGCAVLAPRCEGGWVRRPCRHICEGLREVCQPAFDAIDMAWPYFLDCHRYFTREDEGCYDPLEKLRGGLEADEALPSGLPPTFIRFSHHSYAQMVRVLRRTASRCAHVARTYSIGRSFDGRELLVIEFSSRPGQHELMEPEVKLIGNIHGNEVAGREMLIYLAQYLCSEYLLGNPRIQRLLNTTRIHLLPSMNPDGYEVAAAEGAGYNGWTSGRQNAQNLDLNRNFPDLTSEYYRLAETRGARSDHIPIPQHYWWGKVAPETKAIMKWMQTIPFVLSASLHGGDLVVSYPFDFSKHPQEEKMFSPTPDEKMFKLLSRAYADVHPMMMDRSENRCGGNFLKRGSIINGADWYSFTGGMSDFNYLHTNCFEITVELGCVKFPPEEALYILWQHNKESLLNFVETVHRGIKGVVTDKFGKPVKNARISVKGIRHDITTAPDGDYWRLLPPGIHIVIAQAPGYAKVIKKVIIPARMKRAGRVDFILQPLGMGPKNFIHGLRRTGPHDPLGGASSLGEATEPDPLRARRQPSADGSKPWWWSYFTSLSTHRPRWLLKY

The next test deals with most carboxypeptidases. Particulars: read-out: Ki for most carboxypeptidases; all except CPE.
For test [2], the system named is CPE.
Protocol: as §1, §2

Chain of CPE (Homo sapiens, UniProt P16870) (P16870 43-450 limits assumed): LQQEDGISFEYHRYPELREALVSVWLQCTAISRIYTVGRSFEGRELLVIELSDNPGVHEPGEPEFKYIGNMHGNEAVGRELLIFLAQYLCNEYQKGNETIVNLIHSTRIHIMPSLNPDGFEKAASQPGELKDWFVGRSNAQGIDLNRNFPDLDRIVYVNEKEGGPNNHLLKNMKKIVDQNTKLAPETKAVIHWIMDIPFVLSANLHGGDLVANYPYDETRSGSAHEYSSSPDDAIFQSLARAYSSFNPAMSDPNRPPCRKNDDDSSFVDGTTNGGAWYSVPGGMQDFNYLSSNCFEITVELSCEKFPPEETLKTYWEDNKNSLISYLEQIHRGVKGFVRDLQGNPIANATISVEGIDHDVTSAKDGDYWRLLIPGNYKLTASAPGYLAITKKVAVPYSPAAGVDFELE
Protocol for CPB: (§3) A typical assay (75 μL) contained each studied carboxypeptidase and selected inhibitors (in 5 μL DMSO) in HBSP buffer in 96-well round bottom microtiter plates (Costar 3365 plates). Enzyme and compound were preincubated for 15–30 minutes at room temperature. […] The final substrate concentration was 15 to 50 nM. The amount of carboxypeptidase activity was titrated to result in 40,000–50,000 electrochemiluminescence counts (typically 0.02–0.1 nM, 0.01 nM, 5 nM, and 0.15–0.65 nM. for TAFIa, CPB, CPN and CPM, respectively). […] Ruthenium-labeled G2-10 (25 μL of 0.063 μg/mL) and streptavidin magnetic beads (25 μL of 0.2 mg/mL, Dynabeads M-280) were added to the quenched solution and shaken at 300 rpm for >1 hr. G2-10 antibody and beads were prepared in a BSA diluent containing 150 mM phosphate, pH 7.8, 150 mM NaCl, 3% (w/v) BSA (protease free fraction V) and 0.05% NaN3. The volume was brought to 250 μL with HBSP and read on an Igen 96-well electrochemiluminescence plate reader (M8 Analyzer) at 620 nm. Subtraction of background activity in solutions containing only substrate was performed to determine the final activity. […] One unit was defined as one nM product generated per min.
as §2
(§4) Several commercial inhibitors were tested with the electrochemiluminescence assay.
(§5) Hydrolysis of substrate was measured in HBSP (pH 7.4) for TAFIa, CPB, CPM, and CPM. Activities of CPE and CPZ were measures in acetate buffer (pH 5.5) and Tris buffer (pH 7.4), respectively.
Protocol for CPM: as §3, §2, §4, §5
Protocol for CPN: (§6) A typical assay (75 μL) contained each studied carboxypeptidase and selected inhibitors (in 5 μL DMSO) in HBSP buffer in 96-well round bottom microtiter plates (Costar 3365 plates). Enzyme and compound were preincubated for 15–30 minutes at room temperature. […] The final substrate concentration was 15 to 50 nM. The amount of carboxypeptidase activity was titrated to result in 40,000–50,000 electrochemiluminescence counts (typically 0.02–0.1 nM, 0.01 nM, 5 nM, and 0.15–0.65 nM. for TAFIa, CPB, CPN and CPM, respectively). […] Ruthenium-labeled G2-10 (25 μL of 0.063 μg/mL) and streptavidin magnetic beads (25 μL of 0.2 mg/mL, Dynabeads M-280) were added to the quenched solution and shaken at 300 rpm for >1 hr. G2-10 antibody and beads were prepared in a BSA diluent containing 150 mM phosphate, pH 7.8, 150 mM NaCl, 3% (w/v) BSA (protease free fraction V) and 0.05% NaN3. The volume was brought to 250 μL with HBSP and read on an Igen 96-well electrochemiluminescence plate reader (M8 Analyzer) at 620 nm. […]
(§7) All measurements were performed in at least duplicates and the inhibition constants (Ki) were determined by the equation below wherein Vo and Vi are activity in the absence and presence of inhibitors, respectively. […]
(§8) Hydrolysis of substrate was measured in HBSP (pH 7.4) for TAFIa, CPB, CPM, and CPM. […]
Protocol for CPZ: Inhibition studies of CPE were performed in an acetate buffer containing 125 mM sodium acetate, pH 5.5, 1.25 mM CoCl2 at 37° C. […] CPE (final concentration 0.15 nM) was pre-incubated with inhibitors for 30 min at room temperature. The electrochemiluminescence substrate (final concentration 50 nM) was added and incubated for 6 hr at 37° C., then quenched with one-third volume of 1 M Tris, pH 8.0. The activity of CPZ was determined in 100 mM Tris, pH 7.4 at 37° C.
CPZ (final concentration 2 nM) was pre-incubated with inhibitors for 30 min at room temperature before substrate was added (final concentration 50 nM). […] The concentration of product was determined as described above.
as §2
Activities of CPE and CPZ were measures in acetate buffer (pH 5.5) and Tris buffer (pH 7.4), respectively.
Protocol for most carboxypeptidases: as §6, §7, §8

Take protamine: the “specificity for CPN activity” value on CPN (CPN versus the other carboxypeptidases) was more than 100 fold. Further, at CPN (read-out: Ki for CPN, room temperature, HBSP pH 7.4), the Ki amounted to 0.97 µM.
As to `CSCC[C@H](NC(=O)[C@H](CC(C)C)NC(=O)CNC(=O)CCCCCNC(=O)CCCCCNC(=O)CCCC[C@@H]1SC[C@@H]2NC(=O)N[C@@H]21)C(=O)N[C@H](C(=O)NCC(=O)NCC(=O)N[C@H](C(=O)N[C@H](C(=O)N[C@@H](CCCNC(=N)N)C(=O)O)C(C)C)C(C)C)C(C)C` ({Biotin-Ahx-Ahx}-GLMVGGVVR-OH), the Km on CPM (read-out: Km for CPM, 37° C.) was more than 50 µM.
Regarding `N=C(N)NCCSC(CC(=O)O)C(=O)O` (centres unmarked) [GEMSA, 2-guanidinoethylmercaptosuccinic acid], at CPB, the “inhibitory potency toward CPB relative to TAFIa” value is recorded as “two to three orders of magnitude greater”. Also, the results for the Ki at CPE [1] and at CPZ were 0.016 µM and 7 µM, respectively. On CPZ (CPZ versus CPE), the “fold less potent for CPZ than for CPE” value came out at 440 fold.
In the case of `N=C(N)NCCSCC(CS)C(=O)O` (racemic) [Plummer's Inhibitor, DL-2-mercaptomethyl-3-guinidinoethylthiopropanoic acid], the “inhibitory potency toward CPB relative to TAFIa” value on CPB is “two to three orders of magnitude greater”. At CPM, this molecule gave an inhibitory constant (Ki) of 0.003 µM.
As to `NCCCCCC(=O)O` [ε-aminocaproic acid], the Ki at most carboxypeptidases is not below 1000 µM. On CPE [1], this molecule returned an IC50 of 8 µM and a Ki of 8.2 µM. Further, the “fold more potent on CPE than inhibition of CPB” value in the test on CPE [2] (CPE versus CPB) is listed as more than 100 fold. Besides, in the test with CPE [2] (CPE versus other carboxypeptidases), the “potency on CPE relative to the other enzymes” value is listed as “two orders of magnitude more potent”.

The Ki is a dissociation constant, usually derived from enzyme kinetics or from competition with a known ligand. For orientation: Km means the substrate concentration at which the rate is half of its maximum. The term IC50 denotes the concentration needed to halve the response being measured. High values mean lower potency, low ones higher potency.
